What was measured:
[1] = Drug concentrations in Rhesus macaque vaginal tissue explants (LC-MS/MS); assay type: in vitro ADME, Rhesus macaque (Macaca mulatta); settings: for AUC3h–15d / Cmax: Rh. macaque vaginal explants, intracellular
[2] = Drug concentrations in human colorectal tissue explants (LC-MS/MS); assay type: in vitro ADME; settings: for AUC3h-15d / Cmax: Human colorectal explants, intracellular
[3] = Drug concentrations in human ecto-cervical tissue explants (LC-MS/MS); settings: human ecto-cervical explants; harvesting schedule of the assay
[4] = Drug concentrations in Rhesus macaque colorectal tissue explants (LC-MS/MS); assay type: in vitro ADME, Rhesus macaque (Macaca mulatta); settings: for AUC3h–15d / Cmax: Rh. macaque colorectal explants, intracellular
[5] = Drug concentrations in Rhesus macaque ecto-cervical tissue explants (LC-MS/MS); assay type: in vitro ADME, Rhesus macaque (Macaca mulatta); settings: NHP ecto-cervical explants; harvesting schedule of the assay
RT-SHIV [6] = test: tissue or blood; assay type: cell-based; settings: for p27 AUC3-15: Rhesus macaque colorectal explants
SIVmac32H [7] = test: microbe, parasite or virus in culture; assay type: cell-based; settings: for p27 AUC3-15: Rhesus macaque vaginal explants
HIV-1YU.2 K65R = test: microbe, parasite or virus in culture; assay type: cell-based; settings: Human colorectal explants
HIV-1BaL [8] = test: microbe, parasite or virus in culture; assay type: cell-based; settings: Human colorectal explants
SIVmac32H K65RM184V [9] = test: microbe, parasite or virus in culture; assay type: cell-based; settings: for p27 AUC3-15: Rhesus macaque cervical explants
SIVmac32H K65RM184V [10] = test: microbe, parasite or virus in culture; assay type: cell-based; settings: for p27 AUC3-15: Rhesus macaque colorectal explants
HIV-1BaL [11] = test: microbe, parasite or virus in culture; assay type: cell-based; settings: Human cervical explants
SIVmac32H [12] = test: microbe, parasite or virus in culture; assay type: cell-based; settings: for p27 AUC3-15: Rhesus macaque cervical explants
SIVmac32H K65RM184V [13] = test: microbe, parasite or virus in culture; assay type: cell-based; settings: for p27 AUC3-15: Rhesus macaque vaginal explants
RT-SHIV [14] = test: tissue or blood; assay type: cell-based; settings: for p27 AUC3-15: Rhesus macaque vaginal explants
HIV-1YU.2 = test: microbe, parasite or virus in culture; assay type: cell-based; settings: Human colorectal explants
[15] = test system: HIV-1YU.2 L313T/I321V and V314T/I321V; assay type: cell-based
HIV-1/SIV/SHIV isolates = assay type: cell-based
HIV-1YU.2 K65RM184V = test: microbe, parasite or virus in culture; assay type: cell-based; settings: Human colorectal explants;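 for p24 AUC3-15: high arm above the IC50 and low arm below the IC50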
SIVmac32H [16] = test: microbe, parasite or virus in culture; assay type: cell-based; settings: for p27 AUC3-15: Rhesus macaque colorectal explants
HIV-1YU.2 M184V = test: microbe, parasite or virus in culture; assay type: cell-based; settings: Human colorectal explants
[17] = Comb. gel, High [ ]: TFV 70 µM + MVC […]
[18] = Comb. gel, Low [ ]: TFV 7 µM + MVC […]
[19] = Single gel, High [ ]: TFV 70 µM
[20] = NHP colorectal explants, day 15
[21] = high concentration: TFV 70 µM, MVC […], or TFV 70 µM + MVC […]
[22] = low concentration: TFV 7 µM, MVC […], or TFV 7 µM + MVC […]

CC(Cn1cnc2c(N)ncnc21)OCP(=O)(O)OP(=O)(O)OP(=O)(O)O (stereo in doubt) [TFVdp]
Cmax fold increase ([1]; NHP vaginal Cmax lower than in colorectal explants): 1.6 fold | AUC3h–15d [1, 17]: 96.03 fmol·days/mg | Cmax [1, 17]: 12.81 fmol/mg | AUC3h–15d [1, 18]: 54.08 fmol·days/mg | Cmax [1, 18]: 7.21 fmol/mg | AUC3h–15d [1, 19]: 134.18 fmol·days/mg | Cmax [1, 19]: 17.89 fmol/mg | AUC3h–15d ([1]; Single gel, Low [ ]: TFV 7 µM): 46.22 fmol·days/mg | Cmax ([1]; Single gel, Low [ ]: TFV 7 µM): 6.16 fmol/mg | persistence of metabolite: detected post-dose ([1]; vaginal tissue): 3 h | AUC3h-15d [2, 17]: 82.53 fmol·days/mg | Cmax [2, 17]: 20.07 fmol/mg | AUC3h-15d [2, 18]: 41.21 fmol·days/mg | Cmax [2, 18]: 8.36 fmol/mg | AUC3h-15d [2, 19]: 98.95 fmol·days/mg | Cmax [2, 19]: 22.41 fmol/mg | AUC3h-15d ([2]; Single gel, Low [ ]: TFV 7 µM): 35.29 fmol·days/mg | Cmax ([2]; Single gel, Low [ ]: TFV 7 µM): 8.36 fmol/mg | difference in TFVdp concentrations between NHP and humans ([2]; colorectal explants): No significant differences | TFVdp detection [3]: neither detected | AUC3h–15d [4, 17]: 148.40 fmol·days/mg | Cmax [4, 17]: 29.12 fmol/mg | AUC3h–15d [4, 18]: 107.96 fmol·days/mg | Cmax [4, 18]: 24.43 fmol/mg | AUC3h–15d [4, 19]: 176.28 fmol·days/mg | Cmax [4, 19]: 41.93 fmol/mg | AUC3h–15d ([4]; Single gel, Low [ ]: TFV 7 µM): 164.03 fmol·days/mg | Cmax ([4]; Single gel, Low [ ]: TFV 7 µM): 41.47 fmol/mg | persistence of metabolite: still detected post-dose ([4]; colorectal explants): up to 3 days | TFVdp detection [5]: neither detected

Maraviroc [MVC]
IC50 (RT-SHIV [6]; [20]): 2.32 ± 0.78 µM | p27 AUC3-15 (RT-SHIV [6]; [21]): 2.85 ± 2.01 µgxd/ml | p27 AUC3-15 (RT-SHIV [6]; [22]): 5.25 ± 3.12 µgxd/ml | IC50 (SIVmac32H [7]; NHP vaginal explants, day 15): 3.32 ± 3.19 µM | p27 AUC3-15 (SIVmac32H [7]; [21]): 1.26 ± 0.24 µgxd/ml | p27 AUC3-15 (SIVmac32H [7]; [22]): 1.45 ± 0.28 µgxd/ml | IC50 (HIV-1YU.2 K65R; day 15): 2.77 ± 1.12 µM | p24 AUC3-15 (HIV-1YU.2 K65R; [21]): 0.36 ± 0.05 µgxd/ml | p24 AUC3-15 (HIV-1YU.2 K65R; [22]): 0.76 ± 0.10 µgxd/ml | IC50 (HIV-1BaL [8]; day 15): 1.26 ± 0.49 µM | p24 AUC3-15 (HIV-1BaL [8]; [21]): 0.59 ± 0.33 µgxd/ml | p24 AUC3-15 (HIV-1BaL [8]; [22]): 2.68 ± 1.79 µgxd/ml | IC50 (SIVmac32H K65RM184V [9]; NHP cervical explants, day 15): 4.57 ± 2.92 µM | p27 AUC3-15 (SIVmac32H K65RM184V [9]; [21]): 1.37 ± 0.30 µgxd/ml | p27 AUC3-15 (SIVmac32H K65RM184V [9]; [22]): 1.62 ± 0.33 µgxd/ml | IC50 (SIVmac32H K65RM184V [10]; [20]): 1.98 ± 1.07 µM | p27 AUC3-15 (SIVmac32H K65RM184V [10]; [21]): 1.33 ± 0.22 µgxd/ml | p27 AUC3-15 (SIVmac32H K65RM184V [10]; [22]): 1.65 ± 0.32 µgxd/ml | IC50 (HIV-1BaL [11]; day 15): 2.85 ± 0.49 µM | p24 AUC3-15 (HIV-1BaL [11]; [21]): 1.32 ± 0.36 µgxd/ml | p24 AUC3-15 (HIV-1BaL [11]; [22]): 2.61 ± 1.35 µgxd/ml | IC50 (SIVmac32H [12]; NHP cervical explants, day 15): 2.74 ± 1.18 µM | p27 AUC3-15 (SIVmac32H [12]; [21]): 1.27 ± 0.35 µgxd/ml | p27 AUC3-15 (SIVmac32H [12]; [22]): 1.42 ± 0.44 µgxd/ml | IC50 (SIVmac32H K65RM184V [13]; NHP vaginal explants, day 15): 3.31 ± 1.68 µM | p27 AUC3-15 (SIVmac32H K65RM184V [13]; [21]): 1.33 ± 0.30 µgxd/ml | p27 AUC3-15 (SIVmac32H K65RM184V [13]; [22]): 1.55 ± 0.28 µgxd/ml | IC50 (RT-SHIV [14]; NHP vaginal explants, day 15): 2.56 ± 1.59 µM | p27 AUC3-15 (RT-SHIV [14]; [21]): 1.27 ± 0.28 µgxd/ml | p27 AUC3-15 (RT-SHIV [14]; [22]): 1.54 ± 0.31 µgxd/ml | IC50 (HIV-1YU.2; day 15): 1.15 ± 0.84 µM | p24 AUC3-15 (HIV-1YU.2; [21]): 1.60 ± 0.57 µgxd/ml | p24 AUC3-15 (HIV-1YU.2; [22]): 9.15 ± 5.28 µgxd/ml | inhibitory potency against Env-mutated HIV-1YU.2 [15]: no reduction of inhibitory potency | potency against the mutant isolates (HIV-1/SIV/SHIV isolates): no impact | IC50 (HIV-1YU.2 K65RM184V; day 15): 1.43 ± 0.98 µM | p24 AUC3-15 (HIV-1YU.2 K65RM184V; [21]): 0.82 ± 0.09 µgxd/ml | p24 AUC3-15 (HIV-1YU.2 K65RM184V; [22]): 1.60 ± 0.38 µgxd/ml | IC50 (SIVmac32H [16]; [20]): 1.96 ± 1.3 µM | p27 AUC3-15 (SIVmac32H [16]; [21]): 2.42 ± 0.53 µgxd/ml | p27 AUC3-15 (SIVmac32H [16]; [22]): 6.12 ± 1.35 µgxd/ml | IC50 (HIV-1YU.2 M184V; day 15): 1.24 ± 1.88 µM | p24 AUC3-15 (HIV-1YU.2 M184V; [21]): 0.26 ± 0.13 µgxd/ml | p24 AUC3-15 (HIV-1YU.2 M184V; [22]): 0.70 ± 0.11 µgxd/ml

— publication PMC9157191, “The ex vivo pharmacology of HIV-1 antiretrovirals differs between macaques and humans” (iScience, 2022)
